Source: US9079913B2, “Spiro-oxindole MDM2 antagonists” (The Regents of the University of Michigan, priority 2009, dated 2015)
Values joined by “and” are separate entries in the source; they are usually repeats but may differ in a detail not shown here. Identical values can stand only once.

What was measured:
[1] = In vitro microsomal stability, human; assay type: in vitro ADME; settings: for Microsomal stability, % remaining: Human microsomes
[2] = Pharmacokinetic studies in ICR mice; assay type: in vivo; parameters: Measured concentrations in the plasma samples: unit not given here; settings: for Measured concentrations in the plasma samples: single i.v. dose 10 mg/kg; for Plasma Concentrations: single p.o dose 50 mg/kg
[3] = Pharmacokinetic studies in Cynomolgus monkeys; assay type: in vivo; settings: for AUC(0-t): animals and MEAN
[4] = Metabolites in rat plasma; assay type: in vivo; settings: rats, MI-219 i.v. 5 mg/kg
Method: Plasma was harvested by centrifuging the blood at 13000 rpm for 5 min at 4° C. and stored frozen at −80±10° C. until analysis.
Based on the similarities and difference among their mass spectra, the possible fragmentation pathways of protonated MI-219 and several lead compounds were proposed. Three characteristic product ions were selected to generate 240 ion channels for MRM screening by using Metabolite ID software (Applied Biosystems), including 40 common biotransformation processes. To search all the metabolites, two other scan modes, EMS full scan and precursor scan were also conducted. Only the components detected in the sample and absent in all the control samples were regarded as possible metabolites. To identify the possible metabolites, both the sample and controls were injected on the LC-MS for EPI and MS^3 scans to obtain their MS^2 and MS^3 spectra.

[5] = male Cynomolgus monkeys, IV (10 mg/kg)
[6] = male Cynomolgus monkeys, IV (10 mg/kg), mean
[7] = male Cynomolgus monkeys, Oral (50 mg/kg)
[8] = male Cynomolgus monkeys, Oral (50 mg/kg), mean

MI-219
Microsomal stability, % remaining ([1]; 0 min): 100.00%
Microsomal stability, % remaining ([1]; 5 min): 78.76%
Microsomal stability, % remaining ([1]; 10 min): 58.19%
Microsomal stability, % remaining ([1]; 15 min): 46.46%
Microsomal stability, % remaining ([1]; 30 min): 26.46%
Microsomal stability, % remaining ([1]; 45 min): 20.88%
Microsomal stability, % remaining ([1]; 60 min): 11.86%
microsomal stability (in words) ([1]; human liver microsomes): metabolized fairly rapidly
AUC ([2]; 50 mg/kg oral dosing): 8469 ± 2381 ng·h/mL
AUC 0→9 h ([2]; p.o. 50 mg/kg): 26839 ng·h/mL and 16158 ng·h/mL and 14622 ng·h/mL
F ([2]; p.o. 50 mg/kg): 76.7% and 46.2% and 41.8% and 54.9 ± 19.0%
Kel ([2]; p.o. 50 mg/kg): 0.37 and 0.69
MRT ([2]; p.o. 50 mg/kg): 2.5813 h and 2.043 h and 2.2585 h
Tmax ([2]; p.o. 50 mg/kg): 2 h
Cmax ([2]; p.o. 50 mg/kg, groups and Mean ± SD): 10399 ng/mL and 9201 ng/mL and 9082 ng/mL and 9561 ± 728 ng/mL
AUC 0→9 h ([2]; p.o. 50 mg/kg, mean): 19206 ± 6655 ng·h/mL
Kel ([2]; p.o. 50 mg/kg, mean): 0.47 ± 0.19
MRT ([2]; p.o. 50 mg/kg, mean): 2.29 ± 0.27 h
Measured concentrations in the plasma samples ([2]; 5 min, groups and Mean ± SD, mean): 18041 ± 3799
Measured concentrations in the plasma samples ([2]; 15 min, mean): 5823 ± 701
Measured concentrations in the plasma samples ([2]; 30 min, mean): 3570 ± 871
Measured concentrations in the plasma samples ([2]; 45 min, mean): 1731 ± 429
Measured concentrations in the plasma samples ([2]; 1 h, mean): 1223 ± 141
Measured concentrations in the plasma samples ([2]; 24 h): BLQ
Plasma Concentrations ([2]; 15 min): 2927 ng/mL and 1700 ng/mL and 1503 ng/mL
Plasma Concentrations ([2]; 15 min, mean): 2043 ± 772 ng/mL
Plasma Concentrations ([2]; 2 h): 10399 ng/mL and 9201 ng/mL and 5808 ng/mL
Plasma Concentrations ([2]; 2 h, mean): 8469 ± 2381 ng/mL
Plasma Concentrations ([2]; 5 h): 522 ng/mL and 277 ng/mL and 334 ng/mL
Plasma Concentrations ([2]; 5 h, mean): 378 ± 128 ng/mL
Plasma Concentrations ([2]; 24 h): Beyond
oral bioavailability in monkeys (in words) ([3]; Cynomolgus Monkeys): orally bioavailable
Plasma Concentration ([3]; male Cynomolgus monkeys, IV 10 mg/kg, time point 0.083, animals and Mean): 15043.60 ng/mL and 18669.25 ng/mL
Plasma Concentration ([3]; male Cynomolgus monkeys, IV 10 mg/kg, time point 0.083, animals and Mean, mean): 16856.43 ng/mL
Plasma Concentration ([3]; male Cynomolgus monkeys, IV 10 mg/kg, time point 0.1): 18416.30 ng/mL
Plasma Concentration ([3]; male Cynomolgus monkeys, IV 10 mg/kg, time point 0.25): 4144.21 ng/mL and 4818.06 ng/mL and 6877.15 ng/mL
Plasma Concentration ([3]; male Cynomolgus monkeys, IV 10 mg/kg, time point 0.25, mean): 5279.81 ng/mL
Plasma Concentration ([3]; male Cynomolgus monkeys, IV 10 mg/kg, time point 0.5): 2188.67 ng/mL and 3577.55 ng/mL and 3536.46 ng/mL
Plasma Concentration ([3]; male Cynomolgus monkeys, IV 10 mg/kg, time point 0.5, mean): 3100.89 ng/mL
Plasma Concentration ([3]; male Cynomolgus monkeys, IV 10 mg/kg, time point 1): 1564.10 ng/mL and 2277.17 ng/mL and 2483.63 ng/mL
Plasma Concentration ([3]; male Cynomolgus monkeys, IV 10 mg/kg, time point 1, mean): 2108.30 ng/mL
Plasma Concentration ([3]; male Cynomolgus monkeys, IV 10 mg/kg, time point 2): 985.23 ng/mL and 1277.08 ng/mL and 1539.44 ng/mL
Plasma Concentration ([3]; male Cynomolgus monkeys, IV 10 mg/kg, time point 2, mean): 1267.25 ng/mL
Plasma Concentration ([3]; male Cynomolgus monkeys, IV 10 mg/kg, time point 3): 1230.40 ng/mL and 691.83 ng/mL and 834.00 ng/mL
Plasma Concentration ([3]; male Cynomolgus monkeys, IV 10 mg/kg, time point 3, mean): 918.74 ng/mL
Plasma Concentration ([3]; male Cynomolgus monkeys, IV 10 mg/kg, time point 4): 348.97 ng/mL and 582.63 ng/mL and 562.45 ng/mL
Plasma Concentration ([3]; male Cynomolgus monkeys, IV 10 mg/kg, time point 4, mean): 498.02 ng/mL
Plasma Concentration ([3]; male Cynomolgus monkeys, IV 10 mg/kg, time point 6): 246.12 ng/mL and 211.39 ng/mL and 324.99 ng/mL
Plasma Concentration ([3]; male Cynomolgus monkeys, IV 10 mg/kg, time point 6, mean): 260.83 ng/mL
Plasma Concentration ([3]; male Cynomolgus monkeys, IV 10 mg/kg, time point 8): 180.91 ng/mL and 115.94 ng/mL and 202.16 ng/mL
Plasma Concentration ([3]; male Cynomolgus monkeys, IV 10 mg/kg, time point 8, mean): 166.34 ng/mL
Plasma Concentration ([3]; male Cynomolgus monkeys, IV 10 mg/kg, time point 24): 5.91 ng/mL and 8.00 ng/mL and 8.34 ng/mL
Plasma Concentration ([3]; male Cynomolgus monkeys, IV 10 mg/kg, time point 24, mean): 7.42 ng/mL
AUC(0-∞) [3, 5]: 11647.87 ng·h/mL and 13703.99 ng·h/mL and 10300.28 ng·h/mL
CLz [3, 5]: 14.3 mL/min/kg and 12.2 mL/min/kg and 16.2 mL/min/kg
Cmax [3, 5]: 18669.25 ng/mL and 18416.30 ng/mL and 15043.60 ng/mL
MRT(0-∞) [3, 5]: 2.12 h and 2.44 h and 2.68 h
T1/2 [3, 5]: 3.25 h and 3.43 h and 3.38 h
Vz [3, 5]: 4.03 L/kg and 3.62 L/kg and 4.73 L/kg
AUC(0-t) [3, 5]: 11610.30 ng·h/mL and 13662.84 ng·h/mL and 10271.39 ng·h/mL
AUC(0-t) [3, 6]: 11848.18 ng·h/mL
AUC(0-∞) [3, 6]: 11884.05 ng·h/mL
CLz [3, 6]: 14.2 mL/min/kg
Cmax [3, 6]: 17376.38 ng/mL
MRT(0-∞) [3, 6]: 2.41 h
T1/2 [3, 6]: 3.35 h
Vz [3, 6]: 4.12 L/kg
MRT(0-∞) [3, 7]: 6.25 h and 6.38 h and 5.57 h
T1/2 [3, 7]: 3.03 h and 2.52 h and 3.72 h
Tmax [3, 7]: 4.00 h and 3.00 h and 3.33 h
MRT(0-∞) [3, 8]: 6.06 h
T1/2 [3, 8]: 3.09 h
Plasma Concentration ([3]; male Cynomolgus monkeys, PO 50 mg/kg, time point 1): 192.53 ng/mL and 186.66 ng/mL and 241.02 ng/mL
Plasma Concentration ([3]; male Cynomolgus monkeys, PO 50 mg/kg, time point 1, mean): 206.74 ng/mL
elimination rate from rat plasma (in words) [4]: similar
